Measurements published in ChEMBL document CHEMBL5126526, “Non-nucleoside structured compounds with antiviral activity-past 10 years (2010-2020)” (2022).

Tested on: Influenza A virus
Test: Antiviral activity against influenza A virus (A/California/04/2009 (H1N1pdm)) infected in BALB/c mouse assessed as fold reduction in viral titers in lung homogenates at 20 mg/kg per day, po BID treated 2 hrs prior to viral infection followed by compound redosing at 12 hrs for 6 days
Type: functional

O=C(O)[C@H]1C2CCC(CC2)[C@@H]1Nc1nc(-c2c[nH]c3ncc(F)cc23)ncc1F [PIMODIVIR]
fold change (FC): 100
